Measured values: ChEMBL document CHEMBL1159354, “Sphingolipids from Bombycis Corpus 101A and their neurotrophic effects” (J Nat Prod, 2003)
Active and inactive are the calls of the source. No cut-off for these calls is given here.

Columns and labels:
PC-12 [1] = test: Induction of neurite outgrowth in rat PC12 cells assessed as neurite length at 10 uM; format: functional, cell-based
PC-12 [2] = test: Induction of neurite outgrowth in rat PC12 cells assessed as neurite length; format: functional, cell-based

Compound | Activity (PC-12 [1]) | Activity (PC-12 [2])
CCCCCCC/C=C/C=C/[C@@H](O)[C@H](CO)NC(=O)CCCCCCCCCCCCCCCCCCCCC | Active | –
CCCCCCCCC/C=C/[C@@H](O)[C@H](CO)NC(=O)CCCCCCCCCCCCCCCCC | – | Active
CCCCCCCCC/C=C/[C@@H](O)[C@H](CO)NC(=O)CCCCCCCCCCCCCCCCCCC | – | Active
CCCCCCC/C=C/C=C/[C@@H](O)[C@H](CO)NC(=O)CCCCCCCCCCCCCCCCCCC | Active | –
